Assay results published in patent US11129389B2, “Gluten-free grain-concentrate substitute for fermented wheat germ food product and method of preparation” (priority 2013, dated 2021).

Assay: In vivo experiments: activity level after removal of a component
Conditions: named component removed from product
Description: The basis for the disclosure that 2-6 methoxy substituted benzoquinones is not an active component of the present invention is vivo experiments.

Compound	activity level of the present invention when the component was removed
2-6 methoxy substituted benzoquinones	remained unchanged
COc1cc(O)cc(OC)c1O [a, 2,6-dimethoxy-1,4-hydroquinone]	decreased
COC1=CC(=O)C=CC1=O [b, monomethoxy-1,4-benzoquinone]	decreased
COc1cc(O)ccc1O [c, monomethoxy-1,4-hydroquinone]	decreased
